These results are taken from patent publication US20250275966A1, “GABAA RECEPTOR MODULATOR SALTS, PARTICLES, AND USES THEREOF” (Engrail Therapeutics, Inc., priority 2022, published 2025).

Structures can show the parent of a compound that is named as a salt.

Series [1] in a line: Oral non-human primate crossover PK study (Example 7). The following applies: four male cynomolgus monkeys, single PO capsule, 34.2 mg/kg fumarate salt (M-3, N-3); for C24(h): 24 hours post-dose, 30 mg/kg free base (K-13); for AUC / Tmax: equivalent on a molar basis to 30 mg/kg free base (K-13). The class given is in vivo, cynomolgus monkeys. An excerpt:
An objective of this study is to determine the Pharmacokinetic (PK) profile of the Test Article following a single oral administration to four male non-human primate cynomolgus monkeys with one (1) week wash out periods.
Four male animals are used for this study, and the four study animals are used for each of three dosing phases with one-week washout periods. Food is withheld overnight prior to dose administration, and food is returned four hours post-dose administration. Water is provided ad libitum by automatic watering device. Two of the four animals are previously treated with Compound 1, and the other two are Compound 1 naive. Test Article (M-3, N-3, or K-13) are provided as capsulized powders; stored at room temperature protected from light in, for example, a polyolefin bottle.

Series [2] is described as follows: Exposure after oral dose of micronized vs non-micronized particles of Compound 1 free base (Example 3). Type of series: in vivo. The conditions noted are these: male Cynomolgus monkeys, QD, 300 mg/kg, plasma, Mean (n = 3). Here is the method:
Exposure of Compound 1 free base following oral (PO) dose administration of 300 mg/kg/dose of micronized particles (Example 1) and 300 mg/kg/dose non-micronized particles (Example 2) were assessed in male Cynomolgus monkeys. Blood samples were collected in K2EDTA coated polypropylene tubes from the femoral vein and plasma was separated. Samples were drawn at the following time points: pre-dose, 15 min, 30 min, 1, 2, 4, 8, 10, 12, 14, 24, 30, and 48 hours post-dose. The concentrations of Compound 1 were determined by LC-MS/MS and pharmacokinetic parameters were determined using Phoenix WinNonlin v8.0) software. [table]

Series [3] is described as follows: Intrinsic dissolution rate and solubility in 0.1 N HCl with 1% Tween 80 (USP <1087>). Type of series: physicochemical. The conditions noted are these: 0.1 N HCl with 1% Tween 80, 37° C. Here is the method: The intrinsic dissolution rate was determined by forming compacted pellets of approximately 75 mg of API using a compression force of 1200 pounds of force, and each pellet (die surface area: 0.5 cm^2) was immersed into a flat bottom vessel containing 500 mL of medium (aqueous 0.1 N HCl with 1% Tween 80 (polyoxyethylene (20) sorbitan monooleate)), using a Distek 2100A dissolution bath, and Distek Circulator/heater (set to 37° C.), with a paddle speed of 100 rpm. An aliquot of the sample (1 mL) was pulled from dissolution media at 15, 30, 45, 60, 75, 90, 105, and 120 minutes, filtered, and analyzed by HPLC. The slope of the dissolution profile corresponded to an intrinsic dissolution rate of hemi-fumarate salt Form B of 6.2 μg/(min·cm^2) as compared to 8.9 μg/(min·cm^2) for Compound 1 (free base). Determination of intrinsic dissolution rate (IDR) was performed for Compound 1 and seven different salts of Compound 1 according to USP <1087> in 0.1 N hydrochloric acid with 1% Tween 80 (Polyoxyethylene […] sorbitan monooleate). Compacted pellets containing approximately 75 mg API were prepared using a compression force of 1200 pounds of force, and each pellet (die surface area: 0.5 cm^2) was immersed into a flat bottom vessel containing 500 mL of medium, using a Distek 2100A dissolution bath, and Distek Circulator/heater (set to 37° C.), with a paddle speed of 100 rpm. An aliquot of the sample (1 mL) was pulled from dissolution media at 15, 30, 45, 60, 75, 90, 105, and 120 minutes, filtered, and analyzed by HPLC. HPLC for IDR and solid-state stability analyses were conducted with an Agilent 1260 Infinity system equipped with a G1311B Quad pump, […] Autosampler, G1330B auto-sampler thermostat, G1316A Thermostatted Column Compartment with a column switch valve, and […] diode array detector.

The nature of series [4]: Pharmacokinetic analysis of Compound 1 and its salts after oral capsule administration (Example 4). Type of series: in vivo, cynomolgus monkeys. The conditions noted are these: 3 male cynomolgus monkeys, single PO capsule, 30 mg/kg, plasma Compound 1. The protocol:
A pharmacokinetic analysis was performed comparing administration of Compound 1 with certain salts of Compound 1 after oral (PO) administration in 3 male cynomolgus monkeys. The subjects received a single PO oral gavage of active pharmaceutical ingredient (API) (e.g., Compound 1 fumarate, Compound 1 sulfate, Compound 1 hydrochloride, Compound 1 phosphate, Compound 1 tosylate, Compound 1 malonate, Compound 1 maleate, or Compound 1 free base) in a capsule at a dose of 30 mg/kg. Following dose administration, the animals were flushed with approximately 10 milliliters of tap water to ensure all API was administered. Animals were observed twice daily and at sample collection time-points for any abnormal clinical and behavioral signs. Body weights were taken prior to dosing and weekly thereafter until study termination. Blood samples (0.5 mL) were collected pre-dose, 15 minutes, 30 minutes, and 1, 2, 4, 6, 8, 10, 12, and 24 hours post-dose. Each blood sample was collected from the monkey's femoral, saphenous or other available vein via direct venipuncture, placed into a polypropylene tube containing K2EDTA as the anticoagulant, and gently inverted several times to mix. The blood samples were kept on wet ice until centrifugation. Blood was centrifuged within 10 minutes of collection. The samples were centrifuged at a temperature of 4° C., at 3,000 g, for 5 minutes. The resulting plasma (˜0.25 mL) was divided into two equal aliquots (125 μL each) into polypropylene tubes, designated as Set A and Set B, after centrifugation. Plasma samples designated for certain metabolites (Set A) were treated with 12.5 μL of 2 M ascorbic acid (plasma: ascorbic acid=[…], v:v) prepared beforehand by combining 0.352 g of ascorbic acid into 1 mL of sterile water in a glass vial and mixing thoroughly. […] Once plasma was prepared, the samples were snap frozen on dry ice. All plasma samples were stored frozen below −70° C. until analyzed.

Take `[2H]C([2H])([2H])C(c1cc2nnc(-c3cc(F)ccc3F)n2nc1OCc1ncnn1C)(C([2H])([2H])[2H])C([2H])([2H])[2H]` [Compound K-13, 3-(2,5-difluorophenyl)-7-[1,1-di(methyl-d3)ethyl-2,2,2-d3]-6-[(1-methyl-1H-1,2,4-triazol-5-yl)methoxy]-1,2,4-triazolo[4,3-b]pyridazine]: in series [1], the “C24(h)” value worked out at 42 ng·mL, the area under the curve (AUC) worked out at 1192 ng·h/mL and the Tmax worked out at 14 h.
Consider `[2H]C([2H])([2H])C(c1cc2nnc(-c3cc(F)ccc3F)n2nc1OCc1ncnn1C)(C([2H])([2H])[2H])C([2H])([2H])[2H]` [Compound M-3], for which, in series [1], the “C24(h)” value turned out to be 603 ng·mL, the area under the curve (AUC) amounted to 17826 ng·h/mL and the Tmax is listed as 10 h.
Take `[2H]C([2H])([2H])C(c1cc2nnc(-c3cc(F)ccc3F)n2nc1OCc1ncnn1C)(C([2H])([2H])[2H])C([2H])([2H])[2H]` [micronized, 3-(2,5-difluorophenyl)-7-[1,1-di(methyl-d3)ethyl-2,2,2-d3]-6-[(1-methyl-1H-1,2,4-triazol-5-yl)methoxy]-1,2,4-triazolo[4,3-b]pyridazine]: in series [2], the AUClast/Dose amounted to 530 ± 537 kg·ng·h/mL/mg and the “AUC∞/Dose” value amounted to 650 ± 730 kg·ng·h/mL/mg. In series [2] (male, cynomolgus monkey, po), this molecule had an AUC(0-inf) of 195000 ± 219000 ng·h/mL and an area under the curve AUC(0-t) of 159000 ± 161000 ng·h/mL. The Cmax in series [2] (male, cynomolgus monkey, po, read-out: Cmax) was found to be 6900 ± 5500 ng/mL. Further, the Tmax in series [2] (male, cynomolgus monkey, po, read-out: Tmax) was determined as 4 ± 3.5 h.
For `[2H]C([2H])([2H])C(c1cc2nnc(-c3cc(F)ccc3F)n2nc1OCc1ncnn1C)(C([2H])([2H])[2H])C([2H])([2H])[2H]` [non-micronized, 3-(2,5-difluorophenyl)-7-[1,1-di(methyl-d3)ethyl-2,2,2-d3]-6-[(1-methyl-1H-1,2,4-triazol-5-yl)methoxy]-1,2,4-triazolo[4,3-b]pyridazine], in series [2], the AUClast was 89225 ± 104664 ng·h/mL, the AUClast/Dose was 297 ± 349 kg·ng·h/mL/mg, the “AUC∞” value stood at 98365 ± 119106 ng·h/mL and the “AUC∞/Dose” value came to 328 ± 397 kg·ng·h/mL/mg. For the same molecule, in series [2], the highest concentration (Cmax) was determined as 5373 ± 4112 ng/mL and the Tmax worked out at 3.30 ± 1.20 h.
`[2H]C([2H])([2H])C(c1cc2nnc(-c3cc(F)ccc3F)n2nc1OCc1ncnn1C)(C([2H])([2H])[2H])C([2H])([2H])[2H]` [Compound N-3]: in series [1], the “C24(h)” value turned out to be 684 ng·mL, the AUC came out at 21540 ng·h/mL and the Tmax came out at 4 h.
In the case of `[2H]C([2H])([2H])C(c1cc2nnc(-c3cc(F)ccc3F)n2nc1OCc1ncnn1C)(C([2H])([2H])[2H])C([2H])([2H])[2H]` [Phosphate Salt, 3-(2,5-difluorophenyl)-7-[1,1-di(methyl-d3)ethyl-2,2,2-d3]-6-[(1-methyl-1H-1,2,4-triazol-5-yl)methoxy]-1,2,4-triazolo[4,3-b]pyridazine], the “Solubility, time point 15 min” value in series [3] (500 mL, pellet about 75 mg, 15 min) amounted to 0.358 µg/mL. Moreover, in series [3] (500 mL, pellet about 75 mg, 30 min), the “Solubility, time point 30 min” value stood at 0.375 µg/mL. Further, the “Solubility, time point 45 min” value in series [3] (500 mL, pellet about 75 mg, 45 min) worked out at 0.449 µg/mL. Also, the “Solubility, time point 60 min” value in series [3] (500 mL, pellet about 75 mg, 60 min) turned out to be 0.543 µg/mL. Also, the “Solubility, time point 75 min” value in series [3] (500 mL, pellet about 75 mg, 75 min) was 0.615 µg/mL. For the same molecule, the “Solubility, time point 90 min” value in series [3] (500 mL, pellet about 75 mg, 90 min) is 0.769 µg/mL. For the same molecule, the “Solubility, time point 105 min” value in series [3] (500 mL, pellet about 75 mg, 105 min) came to 0.912 µg/mL. Also, the “Solubility, time point 120 min” value in series [3] (500 mL, pellet about 75 mg, 120 min) was determined as 0.11 µg/mL. The “Intrinsic Dissolution Rate IDR” value in series [3] (paddle 100 rpm, die surface 0.5 cm^2) is on record as 7.0 μg/(min · cm^2). Besides, in series [3] (sum of the 15-120 min time points), the “Solubility, Cumulative” value worked out at 4.131 µg/mL. Also, in series [4], the AUClast came to 18378 ng·h/mL, the Cmax was determined as 1096 ng/mL and the Tmax worked out at 5.3 h.

For orientation: AUC means the area under the concentration-time curve, a measure of exposure. For orientation: Tmax means the time at which the peak concentration occurs. As a reminder, the AUC(0-inf) is the area under the concentration-time curve extrapolated to infinity. Lower therefore signals less exposure. What is called AUC(0-t) is exposure summed from dosing to a finite time, without extrapolation to infinity. What is called Cmax is the peak of the concentration-time curve.
